We go through 13 molecules from ChEMBL document CHEMBL1201862, “PubChem BioAssay data set” (2004).

Activity calls are given as the source filed them. Some results are limits rather than exact numbers.

The target in test [1] is T1, Oxysterols receptor LXR-beta (Homo sapiens, UniProt P55055).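 Note: Cell-based luminescence dose-response assay of agonist activity at LXR, run as a confirmatory counterscreen to a daf-12 agonist screen; HEK293 cells with Gal4-LXR fusion and GAL4-driven luciferase reporter; agonist potency from rising luciferase signal of a Gal4-LXR reporter.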
T1 sequence (P55055 whole entry): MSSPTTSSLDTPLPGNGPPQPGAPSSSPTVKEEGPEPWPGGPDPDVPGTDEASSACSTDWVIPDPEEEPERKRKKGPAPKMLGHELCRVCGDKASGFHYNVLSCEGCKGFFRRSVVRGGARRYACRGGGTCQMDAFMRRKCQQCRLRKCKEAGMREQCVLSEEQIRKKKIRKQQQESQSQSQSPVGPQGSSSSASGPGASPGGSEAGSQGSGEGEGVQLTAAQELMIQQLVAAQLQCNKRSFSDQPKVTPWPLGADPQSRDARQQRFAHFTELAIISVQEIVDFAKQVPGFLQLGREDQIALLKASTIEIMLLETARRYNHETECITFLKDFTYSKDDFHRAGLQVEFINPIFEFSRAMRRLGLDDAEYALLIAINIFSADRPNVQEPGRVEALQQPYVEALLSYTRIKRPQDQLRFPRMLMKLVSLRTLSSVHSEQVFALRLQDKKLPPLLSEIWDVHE
It counts as functional, cell-based.

The nature of test [2]: cells.
The target of test [3] is T2, Long-chain-fatty-acid--AMP ligase FadD28 (Mycobacterium tuberculosis, UniProt P9WQ59).
T2 sequence (P9WQ59 whole entry): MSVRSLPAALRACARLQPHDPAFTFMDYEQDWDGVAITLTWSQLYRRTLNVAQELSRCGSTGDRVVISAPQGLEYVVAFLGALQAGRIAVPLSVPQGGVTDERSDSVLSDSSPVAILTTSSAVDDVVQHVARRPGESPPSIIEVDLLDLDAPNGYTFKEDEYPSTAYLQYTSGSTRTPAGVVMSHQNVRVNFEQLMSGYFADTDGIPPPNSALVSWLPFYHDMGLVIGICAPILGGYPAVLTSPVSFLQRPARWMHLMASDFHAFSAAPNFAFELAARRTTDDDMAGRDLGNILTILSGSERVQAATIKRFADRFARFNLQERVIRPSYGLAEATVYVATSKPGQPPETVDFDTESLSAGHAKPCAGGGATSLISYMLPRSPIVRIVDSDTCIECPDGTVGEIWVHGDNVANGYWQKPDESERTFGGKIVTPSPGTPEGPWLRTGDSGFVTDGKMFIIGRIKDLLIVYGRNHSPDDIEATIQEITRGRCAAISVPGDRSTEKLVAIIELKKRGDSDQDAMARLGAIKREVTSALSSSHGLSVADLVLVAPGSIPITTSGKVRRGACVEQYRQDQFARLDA
As to the kind of experiment: Fluorescence polarization aasay to screen for inhibitors that compete for the binding of FadD28 to a bisubstrate Measured in Biochemical System Using Plate Reader - 2147-01_Inhibitor_Dose_CherryPick_Activity. It counts as functional, Mycobacterium tuberculosis H37Rv. Background: In fluorescence polarisation assays a small probe gives low polarisation when free and higher when bound to something large.

A further test concerns the target T3, Galanin receptor type 3 (Homo sapiens, UniProt O60755).
T3 sequence (O60755 whole entry): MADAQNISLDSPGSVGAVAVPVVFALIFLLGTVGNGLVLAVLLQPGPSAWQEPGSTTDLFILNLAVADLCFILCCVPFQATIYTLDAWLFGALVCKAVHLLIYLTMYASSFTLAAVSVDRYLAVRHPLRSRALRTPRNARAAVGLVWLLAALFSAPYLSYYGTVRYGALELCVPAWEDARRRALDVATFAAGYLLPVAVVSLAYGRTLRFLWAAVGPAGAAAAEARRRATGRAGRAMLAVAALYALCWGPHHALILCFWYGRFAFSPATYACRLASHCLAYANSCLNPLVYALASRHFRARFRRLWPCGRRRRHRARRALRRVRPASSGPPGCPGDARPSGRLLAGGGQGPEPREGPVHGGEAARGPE
As to the kind of experiment: Fluorescence-based cell-based primary high throughput dose response assay to identify antagonists of the Galanin Receptor 3 (GalR3). It counts as functional.

Test [4] is described as follows: cells. The format is functional, cell-based. The following applies: HEK-CNG.
In test [5] the target is T4, Heat shock factor protein 1 (Mus musculus, UniProt P38532).
T4 sequence (P38532 whole entry): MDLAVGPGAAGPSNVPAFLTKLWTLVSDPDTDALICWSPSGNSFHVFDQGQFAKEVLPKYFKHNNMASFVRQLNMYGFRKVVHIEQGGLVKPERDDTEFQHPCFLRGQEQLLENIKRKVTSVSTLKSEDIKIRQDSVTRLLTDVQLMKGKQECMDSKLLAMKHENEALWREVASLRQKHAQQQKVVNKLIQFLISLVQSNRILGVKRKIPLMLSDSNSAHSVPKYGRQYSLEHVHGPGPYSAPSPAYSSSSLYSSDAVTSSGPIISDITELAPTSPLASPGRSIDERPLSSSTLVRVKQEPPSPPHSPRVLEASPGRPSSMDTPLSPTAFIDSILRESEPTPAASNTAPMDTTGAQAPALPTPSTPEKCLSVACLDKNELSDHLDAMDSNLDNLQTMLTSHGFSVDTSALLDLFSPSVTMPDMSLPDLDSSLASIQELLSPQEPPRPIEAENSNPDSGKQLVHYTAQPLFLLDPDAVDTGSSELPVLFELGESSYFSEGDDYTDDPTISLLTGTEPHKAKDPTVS
As to the kind of experiment: HSF1 potentiators in luciferase reporter cells, confirmation, cell-based, NIH3T3, luminescence, dose retest (AID 435004).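 Note: stress induced by proteasome inhibitor MG132 added 30 min after compound; luciferase reporter driven by HSF1 response element in NIH3T3 cells; actives raise luminescence as potentiators of the MG132 stress response.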 The format is functional.

Test [6] addresses T5, DNA repair protein RAD52 homolog (Homo sapiens, UniProt P43351).
T5 sequence (P43351 whole entry): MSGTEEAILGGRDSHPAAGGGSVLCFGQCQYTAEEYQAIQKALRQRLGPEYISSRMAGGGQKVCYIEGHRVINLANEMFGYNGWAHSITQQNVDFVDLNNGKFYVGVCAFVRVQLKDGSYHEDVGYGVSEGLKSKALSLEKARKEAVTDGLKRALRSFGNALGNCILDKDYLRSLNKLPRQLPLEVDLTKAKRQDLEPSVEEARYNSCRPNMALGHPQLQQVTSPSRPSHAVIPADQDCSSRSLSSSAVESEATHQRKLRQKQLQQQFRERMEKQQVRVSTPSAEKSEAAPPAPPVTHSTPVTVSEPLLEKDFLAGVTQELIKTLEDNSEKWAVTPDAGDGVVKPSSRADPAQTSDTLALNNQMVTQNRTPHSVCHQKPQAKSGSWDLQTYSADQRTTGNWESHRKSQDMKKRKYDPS
It counts as functional, biochemical.

The target of test [7] is T6, Calpain-2 catalytic subunit (Sus scrofa, UniProt P43367).
T6 sequence (P43367 whole entry): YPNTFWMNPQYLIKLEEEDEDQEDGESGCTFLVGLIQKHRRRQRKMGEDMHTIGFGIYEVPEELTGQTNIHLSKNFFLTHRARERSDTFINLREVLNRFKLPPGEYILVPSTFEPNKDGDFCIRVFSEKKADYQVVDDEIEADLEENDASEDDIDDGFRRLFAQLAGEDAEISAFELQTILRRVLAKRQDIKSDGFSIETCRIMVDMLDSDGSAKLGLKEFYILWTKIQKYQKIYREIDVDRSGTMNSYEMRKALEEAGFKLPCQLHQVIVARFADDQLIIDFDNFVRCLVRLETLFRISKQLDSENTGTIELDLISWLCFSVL
As to the kind of experiment: pig calpain II inhibitor potency, dose response, biochemical, fluorogenic peptide substrate (AID 1420). The format is functional.

Test [8] deals with T7, Histone-lysine N-methyltransferase NSD2 (Homo sapiens, UniProt O96028).
T7 sequence (O96028 whole entry): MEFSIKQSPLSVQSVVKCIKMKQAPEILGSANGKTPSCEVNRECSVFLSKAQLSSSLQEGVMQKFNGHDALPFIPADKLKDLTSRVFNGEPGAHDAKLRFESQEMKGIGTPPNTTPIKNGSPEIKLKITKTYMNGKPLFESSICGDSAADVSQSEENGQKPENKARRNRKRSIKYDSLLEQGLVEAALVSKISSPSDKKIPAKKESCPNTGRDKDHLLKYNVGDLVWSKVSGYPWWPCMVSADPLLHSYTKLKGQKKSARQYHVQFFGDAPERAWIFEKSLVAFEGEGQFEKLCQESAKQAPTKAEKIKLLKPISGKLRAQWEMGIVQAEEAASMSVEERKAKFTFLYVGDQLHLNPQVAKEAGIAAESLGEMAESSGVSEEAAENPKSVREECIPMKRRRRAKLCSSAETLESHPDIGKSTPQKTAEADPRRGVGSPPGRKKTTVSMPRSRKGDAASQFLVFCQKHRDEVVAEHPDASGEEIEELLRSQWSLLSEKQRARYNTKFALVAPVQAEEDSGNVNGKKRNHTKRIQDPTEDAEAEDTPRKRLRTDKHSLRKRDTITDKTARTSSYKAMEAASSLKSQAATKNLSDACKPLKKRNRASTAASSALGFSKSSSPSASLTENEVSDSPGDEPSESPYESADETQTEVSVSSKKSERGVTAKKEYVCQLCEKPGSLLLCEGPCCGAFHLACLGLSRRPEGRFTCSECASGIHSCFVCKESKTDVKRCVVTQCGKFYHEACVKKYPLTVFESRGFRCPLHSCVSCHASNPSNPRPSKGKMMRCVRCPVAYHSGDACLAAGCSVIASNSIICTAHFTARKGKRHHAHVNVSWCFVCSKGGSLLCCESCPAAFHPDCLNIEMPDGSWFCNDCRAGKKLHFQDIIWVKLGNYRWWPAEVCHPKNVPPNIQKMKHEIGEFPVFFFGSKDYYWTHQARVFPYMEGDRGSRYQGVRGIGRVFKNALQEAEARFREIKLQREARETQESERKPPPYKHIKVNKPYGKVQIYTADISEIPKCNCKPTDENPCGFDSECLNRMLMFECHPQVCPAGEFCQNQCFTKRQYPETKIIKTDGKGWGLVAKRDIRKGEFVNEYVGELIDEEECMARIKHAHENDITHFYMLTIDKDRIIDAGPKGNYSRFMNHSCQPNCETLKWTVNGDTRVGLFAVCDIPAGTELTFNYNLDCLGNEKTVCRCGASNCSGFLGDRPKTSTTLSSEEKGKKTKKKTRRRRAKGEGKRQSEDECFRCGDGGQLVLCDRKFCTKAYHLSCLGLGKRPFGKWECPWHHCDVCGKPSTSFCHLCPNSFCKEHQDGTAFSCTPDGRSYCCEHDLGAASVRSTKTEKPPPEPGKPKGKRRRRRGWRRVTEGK
The format is biochemical.

The next test deals with Paired box protein Pax-8 (Homo sapiens, UniProt Q06710). As to the kind of experiment: inhibitors of PAX8-driven TPO luciferase reporter, dose response, RMG-I cells, cherry-pick (AID 687027).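 Note: luciferase reporter driven by Pax8 target thyroperoxidase promoter measured by SteadyGlo luminescence.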 The format is functional, cell-based. A general note: In a reporter assay the amount or activity of a reporter protein is the signal.
Sequence of Paired box protein Pax-8 (Q06710 whole entry, the tested form may be a part): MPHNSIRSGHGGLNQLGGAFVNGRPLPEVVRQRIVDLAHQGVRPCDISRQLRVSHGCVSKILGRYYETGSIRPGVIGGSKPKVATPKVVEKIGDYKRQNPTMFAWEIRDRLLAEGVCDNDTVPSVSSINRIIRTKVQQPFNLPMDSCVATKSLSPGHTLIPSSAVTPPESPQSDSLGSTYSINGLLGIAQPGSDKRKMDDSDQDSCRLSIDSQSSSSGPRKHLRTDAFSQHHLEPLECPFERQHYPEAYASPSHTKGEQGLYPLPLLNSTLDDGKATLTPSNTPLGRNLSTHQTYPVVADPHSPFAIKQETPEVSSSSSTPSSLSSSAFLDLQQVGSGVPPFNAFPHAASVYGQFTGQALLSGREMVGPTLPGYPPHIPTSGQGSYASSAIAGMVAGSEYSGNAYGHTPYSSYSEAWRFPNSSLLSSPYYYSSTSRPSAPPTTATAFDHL
The target in test [9] is T8, Fatty acid synthase (Homo sapiens, UniProt P49327). As to the kind of experiment: FAS thioesterase domain inhibitors, dose response, biochemical, endpoint fluorescence intensity, uHTS hits (AID 624327).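 Note: fluorescence from hydrolysis of an O-methyl fluorescein acyl ester substrate by the enzyme.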 The format is functional.
T8 sequence (P49327 whole entry, the tested form may be a part): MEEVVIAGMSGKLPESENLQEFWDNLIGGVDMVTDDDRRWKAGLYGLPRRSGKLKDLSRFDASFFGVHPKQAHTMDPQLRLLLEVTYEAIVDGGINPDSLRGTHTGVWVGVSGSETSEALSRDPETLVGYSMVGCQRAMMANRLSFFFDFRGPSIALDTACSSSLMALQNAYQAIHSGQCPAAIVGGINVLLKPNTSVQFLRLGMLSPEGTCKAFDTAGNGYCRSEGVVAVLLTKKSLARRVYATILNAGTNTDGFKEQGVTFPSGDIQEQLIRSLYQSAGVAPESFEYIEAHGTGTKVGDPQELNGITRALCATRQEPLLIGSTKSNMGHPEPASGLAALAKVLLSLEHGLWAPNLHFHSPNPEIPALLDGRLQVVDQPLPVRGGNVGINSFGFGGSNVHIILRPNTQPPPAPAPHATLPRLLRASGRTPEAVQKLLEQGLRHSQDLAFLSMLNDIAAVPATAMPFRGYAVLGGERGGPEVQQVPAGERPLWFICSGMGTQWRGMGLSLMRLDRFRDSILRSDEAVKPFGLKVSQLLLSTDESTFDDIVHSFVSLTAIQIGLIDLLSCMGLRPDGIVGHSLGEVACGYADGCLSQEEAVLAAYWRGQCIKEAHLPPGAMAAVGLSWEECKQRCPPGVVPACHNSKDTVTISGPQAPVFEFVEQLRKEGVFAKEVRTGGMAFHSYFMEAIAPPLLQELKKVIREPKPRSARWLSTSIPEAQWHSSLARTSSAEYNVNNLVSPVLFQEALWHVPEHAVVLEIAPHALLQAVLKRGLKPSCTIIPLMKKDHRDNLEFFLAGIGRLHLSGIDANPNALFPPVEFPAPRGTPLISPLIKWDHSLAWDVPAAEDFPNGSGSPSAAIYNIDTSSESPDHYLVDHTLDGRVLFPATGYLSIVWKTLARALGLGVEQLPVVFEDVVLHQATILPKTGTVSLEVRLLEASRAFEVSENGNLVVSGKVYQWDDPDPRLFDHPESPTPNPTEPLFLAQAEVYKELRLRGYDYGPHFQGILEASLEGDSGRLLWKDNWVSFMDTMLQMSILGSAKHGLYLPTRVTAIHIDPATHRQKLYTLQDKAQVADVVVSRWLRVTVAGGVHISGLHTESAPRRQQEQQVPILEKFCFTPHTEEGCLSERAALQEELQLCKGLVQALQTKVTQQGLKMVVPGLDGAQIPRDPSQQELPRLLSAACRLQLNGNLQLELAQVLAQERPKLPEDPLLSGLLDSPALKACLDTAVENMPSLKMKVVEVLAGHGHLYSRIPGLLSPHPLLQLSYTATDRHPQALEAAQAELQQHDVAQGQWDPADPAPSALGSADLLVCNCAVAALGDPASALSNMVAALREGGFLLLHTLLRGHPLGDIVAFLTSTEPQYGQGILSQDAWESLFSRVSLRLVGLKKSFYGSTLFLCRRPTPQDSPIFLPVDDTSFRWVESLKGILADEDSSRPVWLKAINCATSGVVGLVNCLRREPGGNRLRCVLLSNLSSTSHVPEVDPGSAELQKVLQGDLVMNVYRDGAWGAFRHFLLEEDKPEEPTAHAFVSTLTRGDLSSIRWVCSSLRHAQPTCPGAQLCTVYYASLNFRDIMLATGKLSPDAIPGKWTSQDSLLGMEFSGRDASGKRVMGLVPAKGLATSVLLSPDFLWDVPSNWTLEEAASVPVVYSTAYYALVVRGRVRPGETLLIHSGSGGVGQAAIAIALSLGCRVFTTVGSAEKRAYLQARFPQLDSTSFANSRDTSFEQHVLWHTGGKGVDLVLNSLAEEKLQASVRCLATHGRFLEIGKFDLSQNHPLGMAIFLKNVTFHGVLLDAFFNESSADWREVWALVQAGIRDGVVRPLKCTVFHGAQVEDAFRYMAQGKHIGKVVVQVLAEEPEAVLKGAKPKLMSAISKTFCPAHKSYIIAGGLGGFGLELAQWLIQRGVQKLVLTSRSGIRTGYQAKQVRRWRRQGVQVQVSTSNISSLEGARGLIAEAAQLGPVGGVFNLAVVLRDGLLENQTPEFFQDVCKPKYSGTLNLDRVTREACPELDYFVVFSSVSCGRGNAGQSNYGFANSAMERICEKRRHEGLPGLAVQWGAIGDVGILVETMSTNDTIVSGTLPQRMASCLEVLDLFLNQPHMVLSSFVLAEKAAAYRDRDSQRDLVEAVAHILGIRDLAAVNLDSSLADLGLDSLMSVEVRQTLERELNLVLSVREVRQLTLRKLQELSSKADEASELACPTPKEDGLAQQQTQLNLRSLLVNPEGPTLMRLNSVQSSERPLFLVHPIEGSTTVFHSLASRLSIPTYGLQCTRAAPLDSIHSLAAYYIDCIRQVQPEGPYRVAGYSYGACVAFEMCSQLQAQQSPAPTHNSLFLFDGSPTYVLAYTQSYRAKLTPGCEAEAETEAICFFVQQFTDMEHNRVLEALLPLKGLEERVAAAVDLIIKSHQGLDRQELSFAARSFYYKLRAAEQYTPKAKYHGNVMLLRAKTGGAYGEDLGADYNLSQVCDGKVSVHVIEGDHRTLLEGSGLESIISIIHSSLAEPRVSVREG
The target in test [10] is T8, Fatty acid synthase. As to the kind of experiment: FAS thioesterase domain inhibitors, dose response, biochemical, kinetic fluorescence intensity (AID 624326).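 Note: rate of fluorescence rise from hydrolysis of a fluorogenic O-methyl fluorescein ester substrate.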 It counts as functional.

With `COc1c(C(=O)Nc2nnc(C3CC3)s2)csc1Cl`, the EC50 (in [1]; in “cells [2]”) was > 67.6 µM (inactive) each time.

`O=C(CC(=O)Nc1ccccc1[N+](=O)[O-])Nc1ccccc1[N+](=O)[O-]`: in [3], the AC50 (as a rule, the concentration giving half of the maximal activity seen) is 32 µM (inactive).

In the case of `CCOC(=O)Cn1nnnc1C(C(C)C)N(Cc1cccs1)Cc1cc2cc(C)ccc2nc1O` (stereo unspecified), the IC50 – broadly, the midpoint of a concentration-inhibition curve – on Galanin receptor type 3 is > 29.9 µM (inactive). Also, the EC50 (usually the concentration at which the effect is half-maximal) in the test “cells [4]” is > 29.9 µM (inactive).

With `Nc1nn(-c2cccc(F)n2)cc1-c1ccc(Cl)cc1`, the EC50 in test [1] was > 67.6 µM (inactive); in test [5] it was > 260 µM (inconclusive); in “cells [2]”, > 67.6 µM (inactive).

Regarding `CN1CCN(c2ccc(NC(=O)c3cc(S(N)(=O)=O)ccc3N3CCOCC3)cc2)CC1`, the AC50 in test [6] was 8.83 µM (active).

Regarding `O=C1c2cccc(Sc3ccccc3)c2C(=O)c2c(Sc3ccccc3)cccc21`, the IC50 in test [7] was 6.16 µM (not active). Moreover, the AC50 in test [8] was 5.27 µM (active).

As for `CC1OC(OC2C=C3CCC4C(CCC5(C)C(c6ccc(=O)oc6)CCC45O)C3(C)CC2)C(O)C(OC2OC(CO)C(O)C(O)C2O)C1O` (stereo unspecified), the IC50 at Galanin receptor type 3 was > 29.9 µM (inactive). On Paired box protein Pax-8, the AC50 was < 0.26 µM (active). In addition, the EC50 in the test “cells [4]” is > 29.9 µM (inactive).

As to `Cc1cccc(C)c1Cn1c(C)c(C(=O)NCc2ccc([N+](=O)[O-])cc2)sc1=O`, the figures for the IC50 on Fatty acid synthase [9] and at Fatty acid synthase [10] were 6.75 µM (active) and 4.48 µM (active), respectively. In test [3], the AC50 is 20.5 µM (active).

In the case of `c1ccc(-c2csc(Nc3ccc4c(c3)OCO4)n2)cc1`, the EC50 (in [1]; in the test “cells [2]”) was > 67.6 µM (inactive) throughout.

Consider `c1ccc2c(c1)COc1c3cc4c(cc3nn1-2)OCO4`, for which the EC50 (in [1]; in “cells [2]”) was > 67.6 µM (inactive) each time.

On to `C/C(=N\Nc1ccc(Cl)c(C(=O)O)c1)c1ccc(Br)s1`, for which, in [3], the AC50 was > 100 µM (inactive).

As for `FC(F)(F)c1cccc(/C=N/NC(=S)NC2CCCCC2)c1`, the IC50 at Galanin receptor type 3 was 3.19 µM (active). Further, in the test “cells [4]”, the EC50 was > 29.9 µM (inactive).

`C[C@H](NCCc1ccc(O)cc1)[C@H](O)c1ccc(O)cc1` [RITODRINE]: the IC50 on Galanin receptor type 3 is 0.932 µM (active). Also, the EC50 in the test “cells [4]” is > 29.9 µM (inactive).
